# Test results from ChEMBL document CHEMBL3046091, “Synthesis and antimicrobial activities of 2-azetidinyl-4-quinazolinone derivatives of diclofenac analogue” (2011).
# Experiments:
# Type in all cases: functional
# Escherichia coli [1] = assay: Antibacterial activity against Escherichia coli ATCC 25922 at 50 ug/ml by cup-plate method; conditions: read-out: IZ
# Candida albicans [2] = assay: Antifungal activity against Candida albicans ATCC 10231 at 50 ug/ml by cup-plate method; conditions: read-out: IZ
# Escherichia coli [3] = assay: Antibacterial activity against Escherichia coli ATCC 25922 at 100 ug/ml by cup-plate method; conditions: read-out: IZ
# Staphylococcus aureus [4] = assay: Antibacterial activity against Staphylococcus aureus ATCC 9144 at 50 to 100 ug/ml by cup-plate method
# Bacillus subtilis [5] = assay: Antibacterial activity against Bacillus subtilis ATCC 6633 at 50 to 100 ug/ml by cup-plate method
# Pseudomonas aeruginosa [6] = assay: Antibacterial activity against Pseudomonas aeruginosa ATCC 9027 at 100 ug/ml by cup-plate method; conditions: read-out: IZ
# Bacillus subtilis [7] = assay: Antibacterial activity against Bacillus subtilis ATCC 6633 at 100 ug/ml by cup-plate method; conditions: read-out: IZ
# Pseudomonas aeruginosa [8] = assay: Antibacterial activity against Pseudomonas aeruginosa ATCC 9027 at 50 to 100 ug/ml by cup-plate method
# Staphylococcus aureus [9] = assay: Antibacterial activity against Staphylococcus aureus ATCC 9144 at 50 ug/ml by cup-plate method; conditions: read-out: IZ
# Bacillus subtilis [10] = assay: Antibacterial activity against Bacillus subtilis ATCC 6633 at 50 ug/ml by cup-plate method; conditions: read-out: IZ
# Escherichia coli [11] = assay: Antibacterial activity against Escherichia coli ATCC 25922 at 50 to 100 ug/ml by cup-plate method
# Candida albicans [12] = assay: Antifungal activity against Candida albicans ATCC 10231 at 100 ug/ml by cup-plate method; conditions: read-out: IZ
# Pseudomonas aeruginosa [13] = assay: Antibacterial activity against Pseudomonas aeruginosa ATCC 9027 at 50 ug/ml by cup-plate method; conditions: read-out: IZ
# Staphylococcus aureus [14] = assay: Antibacterial activity against Staphylococcus aureus ATCC 9144 at 100 ug/ml by cup-plate method; conditions: read-out: IZ
smiles,measurement,setting,value
O=C1C(Cl)C(c2cccc([N+](=O)[O-])c2)N1c1ccc(-n2c(Cc3ccccc3Nc3c(Cl)cccc3Cl)nc3ccc(Br)cc3c2=O)cc1 (stereo not given),zone of inhibition at 50 µg/mL,Escherichia coli [1],2 mm
same,zone of inhibition at 50 µg/mL,Candida albicans [2],1 mm
same,zone of inhibition at 100 µg/mL,Escherichia coli [3],4 mm
same,Activity,Staphylococcus aureus [4],29.73%
same,Activity,Bacillus subtilis [5],32.65%
same,zone of inhibition at 100 µg/mL,Pseudomonas aeruginosa [6],4 mm
same,zone of inhibition at 100 µg/mL,Bacillus subtilis [7],4 mm
same,Activity,Pseudomonas aeruginosa [8],36.75%
same,zone of inhibition at 50 µg/mL,Staphylococcus aureus [9],1 mm
same,zone of inhibition at 50 µg/mL,Bacillus subtilis [10],2 mm
same,Activity,Escherichia coli [11],32.65%
same,zone of inhibition at 100 µg/mL,Candida albicans [12],2 mm
same,zone of inhibition at 50 µg/mL,Pseudomonas aeruginosa [13],2 mm
same,zone of inhibition at 100 µg/mL,Staphylococcus aureus [14],3 mm
CCN(CC)c1ccc(C2C(Cl)C(=O)N2c2ccc(-n3c(Cc4ccccc4Nc4c(Cl)cccc4Cl)nc4ccc(Br)cc4c3=O)cc2)c(O)c1 (stereo not given),zone of inhibition at 50 µg/mL,Escherichia coli [1],0 mm
same,zone of inhibition at 50 µg/mL,Candida albicans [2],0 mm
same,zone of inhibition at 100 µg/mL,Escherichia coli [3],0 mm
same,Activity,Staphylococcus aureus [4],0%
same,Activity,Bacillus subtilis [5],0%
same,zone of inhibition at 100 µg/mL,Pseudomonas aeruginosa [6],0 mm
same,zone of inhibition at 100 µg/mL,Bacillus subtilis [7],0 mm
same,Activity,Pseudomonas aeruginosa [8],0%
same,zone of inhibition at 50 µg/mL,Staphylococcus aureus [9],0 mm
same,zone of inhibition at 50 µg/mL,Bacillus subtilis [10],0 mm
same,Activity,Escherichia coli [11],0%
same,zone of inhibition at 100 µg/mL,Candida albicans [12],0 mm
same,zone of inhibition at 50 µg/mL,Pseudomonas aeruginosa [13],0 mm
same,zone of inhibition at 100 µg/mL,Staphylococcus aureus [14],0 mm
O=C1C(Cl)C(c2ccccc2O)N1c1ccc(-n2c(Cc3ccccc3Nc3c(Cl)cccc3Cl)nc3ccc(Br)cc3c2=O)cc1 (stereo not given),zone of inhibition at 50 µg/mL,Escherichia coli [1],3 mm
same,zone of inhibition at 50 µg/mL,Candida albicans [2],0 mm
same,zone of inhibition at 100 µg/mL,Escherichia coli [3],6 mm
same,Activity,Staphylococcus aureus [4],50.98%
same,Activity,Bacillus subtilis [5],42.68%
same,zone of inhibition at 100 µg/mL,Pseudomonas aeruginosa [6],6 mm
same,zone of inhibition at 100 µg/mL,Bacillus subtilis [7],6 mm
same,Activity,Pseudomonas aeruginosa [8],50%
same,zone of inhibition at 50 µg/mL,Staphylococcus aureus [9],3 mm
same,zone of inhibition at 50 µg/mL,Bacillus subtilis [10],3 mm
same,Activity,Escherichia coli [11],43.53%
same,zone of inhibition at 100 µg/mL,Candida albicans [12],0 mm
same,zone of inhibition at 50 µg/mL,Pseudomonas aeruginosa [13],4 mm
same,zone of inhibition at 100 µg/mL,Staphylococcus aureus [14],6 mm
O=C1C(Cl)C(c2ccc(O)cc2)N1c1ccc(-n2c(Cc3ccccc3Nc3c(Cl)cccc3Cl)nc3ccc(Br)cc3c2=O)cc1 (stereo not given),zone of inhibition at 50 µg/mL,Escherichia coli [1],2 mm
same,zone of inhibition at 50 µg/mL,Candida albicans [2],0 mm
same,zone of inhibition at 100 µg/mL,Escherichia coli [3],5 mm
same,Activity,Staphylococcus aureus [4],44.44%
same,Activity,Bacillus subtilis [5],35.08%
same,zone of inhibition at 100 µg/mL,Pseudomonas aeruginosa [6],7 mm
same,zone of inhibition at 100 µg/mL,Bacillus subtilis [7],5 mm
same,Activity,Pseudomonas aeruginosa [8],58.33%
same,zone of inhibition at 50 µg/mL,Staphylococcus aureus [9],3 mm
same,zone of inhibition at 50 µg/mL,Bacillus subtilis [10],3 mm
same,Activity,Escherichia coli [11],37.89%
same,zone of inhibition at 100 µg/mL,Candida albicans [12],0 mm
same,zone of inhibition at 50 µg/mL,Pseudomonas aeruginosa [13],4 mm
same,zone of inhibition at 100 µg/mL,Staphylococcus aureus [14],5 mm
O=C1C(Cl)C(c2ccccc2Cl)N1c1ccc(-n2c(Cc3ccccc3Nc3c(Cl)cccc3Cl)nc3ccc(Br)cc3c2=O)cc1 (stereo not given),zone of inhibition at 50 µg/mL,Escherichia coli [1],3 mm
same,zone of inhibition at 50 µg/mL,Candida albicans [2],2 mm
same,zone of inhibition at 100 µg/mL,Escherichia coli [3],6 mm
same,Activity,Staphylococcus aureus [4],65.76%
same,Activity,Bacillus subtilis [5],41.48%
same,zone of inhibition at 100 µg/mL,Pseudomonas aeruginosa [6],7 mm
same,zone of inhibition at 100 µg/mL,Bacillus subtilis [7],6 mm
same,Activity,Pseudomonas aeruginosa [8],58.33%
same,zone of inhibition at 50 µg/mL,Staphylococcus aureus [9],4 mm
same,zone of inhibition at 50 µg/mL,Bacillus subtilis [10],3 mm
same,Activity,Escherichia coli [11],44.56%
same,zone of inhibition at 100 µg/mL,Candida albicans [12],3 mm
same,zone of inhibition at 50 µg/mL,Pseudomonas aeruginosa [13],4 mm
same,zone of inhibition at 100 µg/mL,Staphylococcus aureus [14],8 mm
O=C1C(Cl)C(c2ccc(Cl)cc2)N1c1ccc(-n2c(Cc3ccccc3Nc3c(Cl)cccc3Cl)nc3ccc(Br)cc3c2=O)cc1 (stereo not given),zone of inhibition at 50 µg/mL,Escherichia coli [1],3 mm
same,zone of inhibition at 50 µg/mL,Candida albicans [2],2 mm
same,zone of inhibition at 100 µg/mL,Escherichia coli [3],7 mm
same,Activity,Staphylococcus aureus [4],66.67%
same,Activity,Bacillus subtilis [5],57.44%
same,zone of inhibition at 100 µg/mL,Pseudomonas aeruginosa [6],8 mm
same,zone of inhibition at 100 µg/mL,Bacillus subtilis [7],8 mm
same,Activity,Pseudomonas aeruginosa [8],61.79%
same,zone of inhibition at 50 µg/mL,Staphylococcus aureus [9],5 mm
same,zone of inhibition at 50 µg/mL,Bacillus subtilis [10],5 mm
same,Activity,Escherichia coli [11],51.09%
same,zone of inhibition at 100 µg/mL,Candida albicans [12],5 mm
same,zone of inhibition at 50 µg/mL,Pseudomonas aeruginosa [13],5 mm
same,zone of inhibition at 100 µg/mL,Staphylococcus aureus [14],8 mm
COc1ccc(C2C(Cl)C(=O)N2c2ccc(-n3c(Cc4ccccc4Nc4c(Cl)cccc4Cl)nc4ccc(Br)cc4c3=O)cc2)cc1 (stereo not given),zone of inhibition at 50 µg/mL,Escherichia coli [1],4 mm
same,zone of inhibition at 50 µg/mL,Candida albicans [2],2 mm
same,zone of inhibition at 100 µg/mL,Escherichia coli [3],8 mm
same,Activity,Staphylococcus aureus [4],60.94%
same,Activity,Bacillus subtilis [5],57.14%
same,zone of inhibition at 100 µg/mL,Pseudomonas aeruginosa [6],8 mm
same,zone of inhibition at 100 µg/mL,Bacillus subtilis [7],8 mm
same,Activity,Pseudomonas aeruginosa [8],65.76%
same,zone of inhibition at 50 µg/mL,Staphylococcus aureus [9],4 mm
same,zone of inhibition at 50 µg/mL,Bacillus subtilis [10],4 mm
same,Activity,Escherichia coli [11],53.33%
same,zone of inhibition at 100 µg/mL,Candida albicans [12],4 mm
same,zone of inhibition at 50 µg/mL,Pseudomonas aeruginosa [13],4 mm
same,zone of inhibition at 100 µg/mL,Staphylococcus aureus [14],8 mm
COc1cc(C2C(Cl)C(=O)N2c2ccc(-n3c(Cc4ccccc4Nc4c(Cl)cccc4Cl)nc4ccc(Br)cc4c3=O)cc2)cc(OC)c1OC (stereo not given),zone of inhibition at 50 µg/mL,Escherichia coli [1],3 mm
same,zone of inhibition at 50 µg/mL,Candida albicans [2],1 mm
same,zone of inhibition at 100 µg/mL,Escherichia coli [3],7 mm
same,Activity,Staphylococcus aureus [4],58.33%
same,Activity,Bacillus subtilis [5],46.48%
same,zone of inhibition at 100 µg/mL,Pseudomonas aeruginosa [6],7 mm
same,zone of inhibition at 100 µg/mL,Bacillus subtilis [7],7 mm
same,Activity,Pseudomonas aeruginosa [8],58.33%
same,zone of inhibition at 50 µg/mL,Staphylococcus aureus [9],4 mm
same,zone of inhibition at 50 µg/mL,Bacillus subtilis [10],5 mm
same,Activity,Escherichia coli [11],50%
same,zone of inhibition at 100 µg/mL,Candida albicans [12],2 mm
same,zone of inhibition at 50 µg/mL,Pseudomonas aeruginosa [13],4 mm
same,zone of inhibition at 100 µg/mL,Staphylococcus aureus [14],7 mm
COc1ccc(C2C(Cl)C(=O)N2c2ccc(-n3c(Cc4ccccc4Nc4c(Cl)cccc4Cl)nc4ccc(Br)cc4c3=O)cc2)c(O)c1 (stereo not given),zone of inhibition at 50 µg/mL,Escherichia coli [1],4 mm
same,zone of inhibition at 50 µg/mL,Candida albicans [2],0 mm
same,zone of inhibition at 100 µg/mL,Escherichia coli [3],7 mm
same,Activity,Staphylococcus aureus [4],58.33%
same,Activity,Bacillus subtilis [5],44.69%
same,zone of inhibition at 100 µg/mL,Pseudomonas aeruginosa [6],6 mm
same,zone of inhibition at 100 µg/mL,Bacillus subtilis [7],7 mm
same,Activity,Pseudomonas aeruginosa [8],50.98%
same,zone of inhibition at 50 µg/mL,Staphylococcus aureus [9],4 mm
same,zone of inhibition at 50 µg/mL,Bacillus subtilis [10],4 mm
same,Activity,Escherichia coli [11],50%
same,zone of inhibition at 100 µg/mL,Candida albicans [12],1 mm
same,zone of inhibition at 50 µg/mL,Pseudomonas aeruginosa [13],3 mm
same,zone of inhibition at 100 µg/mL,Staphylococcus aureus [14],7 mm
CN(C)c1ccc(C2C(Cl)C(=O)N2c2ccc(-n3c(Cc4ccccc4Nc4c(Cl)cccc4Cl)nc4ccc(Br)cc4c3=O)cc2)cc1 (stereo not given),zone of inhibition at 50 µg/mL,Escherichia coli [1],0 mm
same,zone of inhibition at 50 µg/mL,Candida albicans [2],0 mm
same,zone of inhibition at 100 µg/mL,Escherichia coli [3],0 mm
same,Activity,Staphylococcus aureus [4],0%
same,Activity,Bacillus subtilis [5],0%
same,zone of inhibition at 100 µg/mL,Pseudomonas aeruginosa [6],0 mm
same,zone of inhibition at 100 µg/mL,Bacillus subtilis [7],0 mm
same,Activity,Pseudomonas aeruginosa [8],0%
same,zone of inhibition at 50 µg/mL,Staphylococcus aureus [9],0 mm
same,zone of inhibition at 50 µg/mL,Bacillus subtilis [10],0 mm
same,Activity,Escherichia coli [11],0%
same,zone of inhibition at 100 µg/mL,Candida albicans [12],1 mm
same,zone of inhibition at 50 µg/mL,Pseudomonas aeruginosa [13],0 mm
same,zone of inhibition at 100 µg/mL,Staphylococcus aureus [14],0 mm
C[C@@H]1[C@H](O)[C@@H](C)/C=C/C=C/C=C/C=C/C=C/C=C/C=C/[C@H](O[C@@H]2O[C@H](C)[C@@H](O)[C@H](N)[C@@H]2O)C[C@@H]2O[C@](O)(C[C@@H](O)C[C@@H](O)[C@H](O)CC[C@@H](O)C[C@@H](O)CC(=O)O[C@H]1C)C[C@H](O)[C@H]2C(=O)O [AMPHOTERICIN B],zone of inhibition at 50 µg/mL,Candida albicans [2],4 mm
same,zone of inhibition at 100 µg/mL,Candida albicans [12],9 mm
CC1(C)S[C@@H]2[C@H](NC(=O)Cc3ccccc3)C(=O)N2[C@H]1C(=O)O [PENICILLIN G],zone of inhibition at 50 µg/mL,Escherichia coli [1],7 mm
same,zone of inhibition at 100 µg/mL,Escherichia coli [3],14 mm
same,zone of inhibition at 100 µg/mL,Pseudomonas aeruginosa [6],12 mm
same,zone of inhibition at 100 µg/mL,Bacillus subtilis [7],14 mm
same,zone of inhibition at 50 µg/mL,Staphylococcus aureus [9],6 mm
same,zone of inhibition at 50 µg/mL,Bacillus subtilis [10],7 mm
same,zone of inhibition at 50 µg/mL,Pseudomonas aeruginosa [13],6 mm
same,zone of inhibition at 100 µg/mL,Staphylococcus aureus [14],12 mm
